From patent US10561638B2, “Methods for treating dependence” (Biotie Therapies, Inc., priority 2007, dated 2020)

Tested on: rats
Assay: Chronic (10 day) dosing behavioral tests in rats
Details: for acoustic startle reactivity: 50 mg/kg
Procedure: The effects of chronic dosing of nepicastat in rats were examined. Between three and thirteen days prior to the first dosing day the rats were placed inside the startle apparatus and after a five minute acclimation period they were presented with a 118 dB noise burst on average once a minute (a variable inter-trial interval ranging between 30 and 90 seconds will be used) for 20 minutes. The startle responses were measured and a mean for the last twenty startle response was calculated for each rat.
The following behavioral tests were administered during and after chronic dosing; body core temperature, motor activity, acoustic startle reactivity, and pre-pulse inhibition of acoustic startle.
The animals were tested in an enclosed room with a white noise generator running Motor activity tests were conducted immediately after the body core temperature reading taken on dosing day ten (about 3 hours and 35 minutes after the morning daily dose of nepicastat, and SKF-102698, and 20 minutes prior to the daily administration of clonidine and d-amphetamine on dosing day ten). Motor activity tests were run for one hour. A diagnostic program was run on each of the motor activity chambers prior to each test session to assure that the photo beams and light sensors were operating properly. […] D-amphetamine was used as the positive control for this assay.
Rat body core temperatures were obtained by inserting the rectal probe 2 cm into the colon of each rat. Each rat's body core temperature was measured three times and the average of the three reading was calculated. Body core temperature readings were obtained immediately prior to the ten day chronic dosing schedule (to obtain a baseline), and three and half hour after the morning daily dose of nepicastat, and SKF-102698, and 15 minutes prior to the daily administration of clonidine and d-amphetamine, on dosing days one, five and ten. […] Both clonidine (an alpha2 agonist), and d-amphetamine (a dopamine releaser) were used as the positive controls for this assay.
Acoustic startle reactivity (a series of muscle contractions elicited by an intense burst of noise with a rapid onset), and pre-pulse inhibition (sensorimotor gating measured by analyzing any decrease in startle reactivity which occurs when a startling stimulus is immediately preceded by a non startling stimulus) were both measured in eight SR-Lab (San Diego Instruments, San Diego, Calif.) test stations. The rats were placed individually in a Plexiglas cylinder (10 cm diameter) which was housed in a ventilated sound-attenuating enclosure. Acoustic noise bursts (a broad band noise with a rise time and fall time of 1 msec) were presented via a speaker mounted 30 cm above the animal. Also, these speakers produced a 68 dB level of background noise throughout all test sessions. A piezoelectric accelerometer attached below the plexiglass cylinder transduced the subject's movement into a voltage which was then rectified and digitized (on a scale from 0 to 4095) by a PC computer equipped with SR-Lab software and interface assembly. A decibel meter was used to calibrate the speakers in each of the eight test station to ±1% of the mean. Additionally, a SR-Lab calibrating instrument was used to calibrate each of the eight startle detection apparatuses to ±2% of the mean. Startle reactivity and pre-pulse inhibition tests were run concurrently immediately alter the motor activity test (about 4 hours and 40 minutes after the morning daily injection of nepicastat, and SKF-102698, and 10 minutes after a supplemental administration of clonidine and d-amphetamine on dosing day ten).

Structure (SMILES)	pre-pulse inhibition (dosing day ten)	locomotor activity vs vehicle (dosing day ten, nepicastat 5, 15, 50, SKF-102698 50 mg/kg bid, clonidine 20 μg/kg, d-amphetamine 2 mg/kg bid)	pre-pulse inhibition (rat, in vivo)	acoustic startle reactivity (rat, in vivo)	body core temperature (rat, in vivo)
Fc1cc(F)cc(Cn2cc[nH]c2=S)c1 [SKF-102698, reference compound]	Neither d-amphetamine nor SKF-102698 was significantly different	significantly lower locomotor activity	marginally higher percent prepulse inhibition	significantly lower startle response compared to cyclodextrin	
Cl.NCc1c[nH]c(=S)n1[C@H]1CCc2c(F)cc(F)cc2C1 [nepicastat, (S)-5-Aminomethyl-1-(5,7-difluoro-1,2,3,4-tetrahydronaphth-2-yl)-2,3-dihydro-2-thioxo-1H-imidazole hydrochloride]			None of the nepicastat dose groups were significantly different	significantly higher startle response than the SKF-102698	unaffected
